Holding throughout (format): biochemical
Holding throughout (conditions): for k/KI (kirr/KI): values without asterisk

The target in one assay is T1, Cloned cathepsin S (Homo sapiens, UniProt P25774).
T1 construct: made in house
Put plainly: Inhibition of cathepsin S, Z-Val-Val-Arg-AMC fluorescence progress curves. As for the experimental part: Stock solutions of the various inhibitors (10 mM) were made in DMF; dilutions were made in the same solvent. Cloned cathepsin S, (see Bromme et al., J. Biol. Chem. 268(&): 4832-4838 (1993)) was less than 1 nM in the assay. The assay buffer contained 100 mM phosphate at pH 6.5, 0.01% Triton, 2.5 mM dithiothreitol (DTT), and 2.5 mM ethylenediaminetetraacetic acid (EDTA). The substrate for cathepsin S was 10 μM Z-Val-Val-Arg-AMC (carbobenzyloxyvalinylvalinylarginylaminomethylcoumarin). The assays were initiated at 25° C. by addition of enzyme to 2 mL of assay buffer containing the substrate and the various inhibitors (30-0.001 μM). The increase in fluorescence at 460 nm with excitation at 380 nm was followed with time. Inactivation of cathepsin S was indicated by a downward curve in the increase in fluorescence with time. In the absence of inhibitors, the enzymatic production of free AMC was linear throughout the time course of inactivation examined. Data points were collected over at least 3 half-times of inactivation. The inhibition progress curves were analyzed using non-linear curve fitting software to compute the kobs values. Approximate second-order inactivation constants (kobs /[I]) were calculated for all compounds. For selected inhibitors, plots of 1/[I] vs. 1/kobs yielded the true constants kirr, KI, and kirr /KI, and were corrected for the presence of substrate by dividing KI (app.) by {1+[S]/Km}.

Assay [1] deals with T2, Cathepsin B from human placenta (Homo sapiens, UniProt P07858).
T2 construct: Cathepsin B from human placenta, obtained from Sigma; purchased Sigma; host or cells: human placenta (tissue)
The assay can be described thus: Inhibition of cathepsin B, Z-Arg-Arg-AMC fluorescence progress curves. As for the experimental part: Stock solutions of the various inhibitors (10 mM) were made in DMF; dilutions were made in the same solvent. Cathepsin B from human placenta, obtained from Sigma, was approximately 10 nM in the assay. The assay buffer contained 50 mM phosphate at pH 6.2, 2.5 mM dithiothreitol (DTT), and 2.5 mM ethylenediaminetetraacetic acid (EDTA). The substrate for cathepsin B was 50 μM Z-Arg-Arg-AMC (carbobenzyloxyarginylarginylaminomethylcoumarin). The assays were initiated at 25° C. by addition of enzyme to 2 mL of assay buffer containing the substrate and the various inhibitors (30-0.001 (μM). The increase in fluorescence at 460 nm with excitation at 380 nm was followed with time, and the assay was linear throughout the range observed. Inactivation of cathepsin B was indicated by a downward curve in the increase in fluorescence with time. In the absence of inhibitors, the enzymatic production of free AMC was linear throughout the time course of inactivation examined. Data points were collected over at least 3 half-times of inactivation, and in duplicate. The inhibition progress curves were analyzed using non-linear curve fitting software to compute the kobs values. Approximate second-order inactivation constants (kobs /[I]) were calculated for all compounds. For selected inhibitors, plots of 1/[I] vs. 1/kobs yielded the true constants kirr, KI, and kirr /KI, and were corrected for the presence of substrate by dividing KI (app.) by {1+[S]/Km }.

For assay [2], the target named is T3, Cathepsin L from rat liver (Rattus norvegicus, UniProt P07154).
T3 construct: Cathepsin L from rat liver; from tissue; host or cells: rat liver
The assay can be described thus: Inhibition of cathepsin L, Z-Phe-Arg-AMC fluorescence progress curves. As for the experimental part: (§1) Stock solutions of the various inhibitors (10 mM) were made in DMF; dilutions were made in the same solvent. Cathepsin L from rat liver, (see Mason et al., Biochem. J. 226:233-241 (1985)) was approximately 1 nM in the assay. The assay buffer contained 50 mM phosphate at pH 6:2, 2.5 mM dithiothreitol (DTT), and 2.5 mM ethylenediaminetetraacetic acid (EDTA). The substrate for cathepsin L was 5 μM Z-Phe-Arg-AMC (carbobenzyloxyphenylalanylarginylaminomethylcoumarin). The assays were initiated at 25° C. by addition of enzyme to 2 mL of assay buffer containing the substrate and the various inhibitors (30-0.001 μM). The increase in fluorescence at 460 nm with excitation at 380 nm was followed with time. Inactivation of cathepsin L was indicated by a downward curve in the increase in fluorescence with time. In the absence of inhibitors, the enzymatic production of free AMC was linear throughout the time course of inactivation examined. Data points were collected over at least 3 half-times of inactivation. The inhibition progress curves were analyzed using non-linear curve fitting software to compute the kobs values. Approximate second-order inactivation constants (kobs /[I]) were calculated for all compounds. For selected inhibitors, plots of 1/[I] vs. 1/kobs yielded the true constants kirr, KI, and kirr/KI and were corrected for the presence of substrate by dividing KI (app.) by (1+[S]/Km).

Another assay concerns the target cruzain, from T. cruzi (Trypanosoma cruzi, UniProt P25779). Put plainly: Inhibition of cruzain, as for cathepsin L. As for the experimental part: as §1
Inhibition of cruzain, from T. cruzi, (see Eakin et at., J. Biol. Chem. 268(9): 6115-6118 (1993)) proceeded exactly as for cathepsin L, outlined above, using an enzyme concentration of 1 nM.

The mark [3] stands for this setting: values marked *, 25° C., pH 6.2, read-out: kobs /[I]* (approximate second-order inactivation constant).
Where [4] appears, read: values marked *, 25° C., pH 6.2.
Where [5] appears, read: values marked *, 25° C., pH 6.5.

pKi: −log10 of the molar value. Bounds are passed on as bounds.

T1 sequence (P25774 115-331): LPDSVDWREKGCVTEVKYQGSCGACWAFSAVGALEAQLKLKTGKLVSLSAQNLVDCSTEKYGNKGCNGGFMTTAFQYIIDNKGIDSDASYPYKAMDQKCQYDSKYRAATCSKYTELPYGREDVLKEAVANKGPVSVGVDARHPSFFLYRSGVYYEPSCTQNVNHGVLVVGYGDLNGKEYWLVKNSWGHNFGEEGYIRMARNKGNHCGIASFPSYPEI
T3 sequence (P07154 114-288 limits assumed): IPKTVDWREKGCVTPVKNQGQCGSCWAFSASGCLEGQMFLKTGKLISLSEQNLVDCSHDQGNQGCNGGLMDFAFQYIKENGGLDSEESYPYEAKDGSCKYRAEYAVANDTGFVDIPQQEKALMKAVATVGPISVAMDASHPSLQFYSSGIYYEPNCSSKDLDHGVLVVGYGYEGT
T3 sequence (P07154 291-334 limits assumed): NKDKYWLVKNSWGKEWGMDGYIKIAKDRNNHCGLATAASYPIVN
Sequence of cruzain, from T. cruzi (P25779 123-337 limits assumed): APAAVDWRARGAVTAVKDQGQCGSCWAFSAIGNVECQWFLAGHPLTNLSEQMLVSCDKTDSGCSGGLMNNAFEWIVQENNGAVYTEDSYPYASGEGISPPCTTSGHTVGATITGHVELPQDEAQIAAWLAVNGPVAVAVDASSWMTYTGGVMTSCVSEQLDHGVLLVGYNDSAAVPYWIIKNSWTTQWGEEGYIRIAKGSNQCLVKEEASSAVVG

Regarding `COC(=O)CCC(=O)N[C@@H](Cc1ccccc1)C(=O)N[C@H](/C=C/S(=O)(=O)c1ccccc1)CCc1ccccc1` [MeOSuc-Phe-HphVSPh, (S)-(E)-3-(carbomethoxypropionylphenylalanyl)amino-5-phenyl-1-phenylsulfonyl-1-pentene], the kinact/KI worked out at 740000 M⁻¹ s⁻¹ on Cloned cathepsin S (values marked *, 25° C., pH 6.5, read-out: kobs /[I]* (approximate second-order inactivation constant)); 870 M⁻¹ s⁻¹ in assay [1] (setting [3]); 47000 M⁻¹ s⁻¹ in assay [2] (setting [3]); 34000 M⁻¹ s⁻¹ on cruzain, from T. cruzi (pH 6.2, values marked *, read-out: kobs /[I]* (approximate second-order inactivation constant)).

In the case of `O=C(N[C@H](/C=C/S(=O)(=O)c1ccc2ccccc2c1)CCc1ccccc1)C(Cc1ccc2ccccc2c1)NC(=O)N1CCOCC1` (stereo partly drawn) [Mu-Np-HphVSNp, (S)-(E)-3-(4-morpholinecarbonyl-2-naphthylalanyl)amino-1-(2-napthylsulfonyl)-5-phenyl-1-pentene], the kirr on Cloned cathepsin S is 0.10 s⁻¹; in assay [2] it was 0.14 s⁻¹; on cruzain, from T. cruzi it was 0.044 s⁻¹. In addition, the pKi at Cloned cathepsin S (corrected for substrate) was 8.74; in assay [2] (corrected for substrate), 7.74; at cruzain, from T. cruzi it was 7.60. Moreover, the “k/KI (kirr/KI)” value is reported as 56,000,000 M^-1 sec^-1 on Cloned cathepsin S (25° C., pH 6.5); 9,200,000 M^-1 sec^-1 in assay [2] (25° C., pH 6.2); 1,770,000 M^-1 sec^-1 at cruzain, from T. cruzi. Further, the “kobs /[I]* (approximate second-order inactivation constant)” value (“kobs /[I]*” below) in assay [1] (setting [4]) is 184,000 M^-1 sec^-1.

On to `O=C(N[C@H](/C=C/S(=O)(=O)c1ccc2ccccc2c1)CCc1ccccc1)[C@H](Cc1ccccc1)NC(=O)N1CCOCC1` [Mu-Phe-HphVSNp, (S)-(E)-3-(4-morpholinecarbonylphenylalanyl)amino-1-(2-napthylsulfonyl)-5-phenyl-1-pentene], for which, on Cloned cathepsin S (setting [5]), the “kobs /[I]*” value is recorded as > 5,400,000 M^-1 sec^-1. For the same molecule, the kirr came out at 0.087 s⁻¹ in assay [1] and 0.08 s⁻¹ on cruzain, from T. cruzi. Besides, the pKi is 5.85 in assay [1] (corrected for substrate) and 6.96 on cruzain, from T. cruzi. Besides, the “k/KI (kirr/KI)” value in assay [1] (25° C., pH 6.2) is recorded as 63,700 M^-1 sec^-1; on cruzain, from T. cruzi it was 740,000 M^-1 sec^-1.

On to `O=C(NCCCC[C@@H](/C=C/S(=O)(=O)c1ccccc1)NC(=O)[C@H](Cc1ccccc1)NC(=O)N1CCOCC1)c1ccccc1` [Mu-Phe-Lys(Bz)VSPh, (S)-(E)-3-(4-morpholinecarbonylphenylalanyl)amino-7-benzoylamino-1-phenylsulfonyl-1-heptene], for which the “kobs /[I]*” value is recorded as 2,500,000 M^-1 sec^-1 on Cloned cathepsin S (setting [5]); 210,000 M^-1 sec^-1 in assay [2] (setting [4]); 60,000 M^-1 sec^-1 on cruzain, from T. cruzi (values marked *).

For the molecule `CSCC[C@@H](/C=C/S(=O)(=O)c1ccccc1)NC(=O)[C@H](Cc1ccccc1)NC(=O)N1CCOCC1` [Mu-Phe-MetVSPh, (S)-(E)-3-(4-morpholinecarbonylphenylalanyl)amino-1-phenylsulfonyl-6-thia-1-heptene], the “k/KI (kirr/KI)” value at Cloned cathepsin S (25° C., pH 6.5) was 4,000,000 M^-1 sec^-1; in assay [1] (25° C., pH 6.2), 7,000 M^-1 sec^-1; in assay [2] (25° C., pH 6.2) it was 250,000 M^-1 sec^-1; on cruzain, from T. cruzi, 111,000 M^-1 sec^-1.

Turning to `CCCC[C@@H](/C=C/S(=O)(=O)c1ccccc1)NC(=O)[C@H](Cc1ccccc1)NC(=O)N1CCOCC1` [Mu-Phe-NleVSPh, (S)-(E)-3-(4-morpholinecarbonylphenylalanyl)amino-1-phenylsulfonyl-1-heptene], the “kobs /[I]*” value on Cloned cathepsin S (setting [5]) is recorded as 2,300,000 M^-1 sec^-1. The “k/KI (kirr/KI)” value in assay [1] (25° C., pH 6.2) is on record as 7,600 M^-1 sec^-1; in assay [2] (25° C., pH 6.2), 188,000 M^-1 sec^-1; on cruzain, from T. cruzi, 77,000 M^-1 sec^-1.

As for “(S)-(E)-3-(4-morpholinecarbonylphenylalanyl)amino-5-methylsulfonyl-1-phenylsulfonyl-1-pentene [Mu-Phe-Met(O2)VSPh]”, the “k/KI (kirr/KI)” value at Cloned cathepsin S (25° C., pH 6.5) is on record as 2,800,000 M^-1 sec^-1; in assay [2] (25° C., pH 6.2) it was 250,000 M^-1 sec^-1; on cruzain, from T. cruzi, 160,000 M^-1 sec^-1. For the same molecule, the “kobs /[I]*” value in assay [1] (setting [4]) is reported as 1,600 M^-1 sec^-1.

The term pKi denotes the negative decadic logarithm of the Ki, by convention in mol/L. Lower therefore signals a high Ki.

The values above are taken from patent US6287840A (Axys Pharmaceuticals, Inc., priority 1999, dated 2001).
